According to patent US20100311608A1, “METHOD TO PREPARE MAGNETIC BEADS CONJUGATED WITH SMALL COMPOUNDS” (RIKEN, priority 2009, published 2010):

System: THP-1 cells
Assay: Amount of TNF-α released from THP-1 cells
Format: cell-based, human
Settings: free body, 37° C. for 4 hours, FIG. 8
Experimental: Human monocyte leukemia-derived THP-1 cells (ATCC) were cultured in an RPMI1640 medium (Invitrogen/GIBCO). To the medium, 10% fetal bovine serum (JRH Bioscience), 1 mM sodium pyruvate (Invitrogen/GIBCO), 100 units/mL penicillin, and 100 μg/mL streptomycin (Invitrogen/GIBCO) were added.
(1) The cultured Jurkat cells, derived from human T-lymphocyte leukemia cells, were recovered (1×10^6/mL), and the thus recovered cells were then centrifuged at 1000 rpm for 10 minutes. (2) After a supernatant had been removed, the residue was washed with PBS (137 mM NaCl, 3 mM KCl, 9 mM NaHPO4, 1.5 mM KH2PO4, pH 7.4). (3) The cells were suspended in 300 μL of Binding buffer ([…] Tris-HCl, 150 mM NaCl, protease inhibitor cocktail, pH 7.5). (4) The cells were disintegrated by an ultrasonic wave treatment, and the disintegration of the cells was then observed under a microscope. […] (6) The protein concentration in the cell extract of the supernatant was measured, and the extract was then diluted with Lysis buffer (137 mM NaCl, 3 mM KCl, 9 mM NaHPO4, 1.5 mM KH2PO4, protease inhibitor cocktail, pH 7.4), resulting in a final protein concentration of 5 mg/mL. […] The amount of TNF-α contained in this supernatant was measured. […] (9) 50 μL of Stop solution was added to the resultant, and the absorption spectrum at 450 nm was then measured. […]

Lipid A
responsiveness in the THP cells (TNF-α release): not so high
